Reference: ChEMBL document CHEMBL1201862, “PubChem BioAssay data set” (2004)
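Where inhibition never reached the appropriate level, the endpoint shown equals the highest concentration tested. Otherwise, values were interpolated linearly from a five-concentration, 48-hour dose response in 96-well plates. At the GI50, growth is halved.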 Calls of active or inactive are those of the source. Cut-off read from the data, not from the text of the source: active = GI50 up to about 1.1 µM and inactive = higher.

How the values were obtained:
Assay in all cases: NCI-60 cell line screen, 48 h
IGROV-1 = system: IGROV-1
DU-145 = system: DU-145
NCI-H23 = system: NCI-H23
CAKI-1 = system: CAKI-1
SF-539 = system: SF-539
SW-620 = system: SW-620
UACC-257 = system: UACC-257
RPMI-8226 = system: RPMI-8226
MDA-MB-435 = system: MDA-MB-435
SNB-19 = system: SNB-19
HL-60 = system: HL-60
T47D = system: T47D
MDA-MB-231 = system: MDA-MB-231
MCF7 = system: MCF7
SNB-75 = system: SNB-75
MDA-N = system: MDA-N
HCC 2998 = system: HCC 2998
M14 = system: M14
SK-MEL-2 = system: SK-MEL-2
LOX IMVI = system: LOX IMVI

| Compound | GI50 (IGROV-1) | GI50 (DU-145) | GI50 (NCI-H23) | GI50 (CAKI-1) | GI50 (SF-539) | GI50 (SW-620) | GI50 (UACC-257) | GI50 (RPMI-8226) | GI50 (MDA-MB-435) | GI50 (SNB-19) | GI50 (HL-60) | GI50 (T47D) | GI50 (MDA-MB-231) | GI50 (MCF7) | GI50 (SNB-75) | GI50 (MDA-N) | GI50 (HCC 2998) | GI50 (M14) | GI50 (SK-MEL-2) | GI50 (LOX IMVI) |
| --- | --- | --- | --- | --- | --- | --- | --- | --- | --- | --- | --- | --- | --- | --- | --- | --- | --- | --- | --- | --- |
| O=C(Nc1cccc(Cl)c1)Nn1cnnc1 | > 100 µM (inactive) | > 100 µM (inactive) | > 100 µM (inactive) | > 100 µM (inactive) | > 100 µM (inactive) | > 100 µM (inactive) | > 100 µM (inactive) | > 100 µM (inactive) | > 100 µM (inactive) | > 100 µM (inactive) | 66.5 µM (inactive) | > 100 µM (inactive) | > 100 µM (inactive) | > 100 µM (inactive) | > 100 µM (inactive) | > 100 µM (inactive) | > 100 µM (inactive) | > 100 µM (inactive) | > 100 µM (inactive) | – |
| CCCCCCCCCCN(CCCCCCCCCC)C(=O)COc1c2cc(C(C)(C)C)cc1Cc1cc(C(C)(C)C)cc(c1OCC(=O)N(CCCCCCCCCC)CCCCCCCCCC)Cc1cc(C(C)(C)C)cc(c1OCC(=O)N(CCCCCCCCCC)CCCCCCCCCC)Cc1cc(C(C)(C)C)cc(c1OCC(=O)N(CCCCCCCCCC)CCCCCCCCCC)C2 | 12.4 µM (inactive) | 17.8 µM (inactive) | 1.75 µM (inactive) | – | 4.34 µM (inactive) | 1.93 µM (inactive) | 15.6 µM (inactive) | – | 12.9 µM (inactive) | 9.79 µM (inactive) | 15 µM (inactive) | 16.1 µM (inactive) | 17.6 µM (inactive) | 3.59 µM (inactive) | 18.2 µM (inactive) | 12.2 µM (inactive) | 8.85 µM (inactive) | 2.92 µM (inactive) | 7.93 µM (inactive) | 10.2 µM (inactive) |
| Cc1ccc([N+](=O)[O-])cc1S(=O)(=O)Nc1ccc(C2=NNC(c3ccccc3)C2)cc1 (configuration not stated) | 16.3 µM (inactive) | 27.9 µM (inactive) | 15.8 µM (inactive) | 11.9 µM (inactive) | 28.1 µM (inactive) | 25.4 µM (inactive) | 15.8 µM (inactive) | 7.24 µM (inactive) | 17.1 µM (inactive) | 30.9 µM (inactive) | 16.4 µM (inactive) | 4.23 µM (inactive) | 15.3 µM (inactive) | 14.9 µM (inactive) | 24.8 µM (inactive) | 23.9 µM (inactive) | 18.7 µM (inactive) | 21.4 µM (inactive) | 18.5 µM (inactive) | – |
| Cc1n[nH]c(=O)n1/N=C/c1ccc([N+](=O)[O-])cc1 | – | > 100 µM (inactive) | > 100 µM (inactive) | 30.1 µM (inactive) | > 100 µM (inactive) | > 100 µM (inactive) | > 100 µM (inactive) | > 100 µM (inactive) | > 100 µM (inactive) | – | > 100 µM (inactive) | > 100 µM (inactive) | > 100 µM (inactive) | > 100 µM (inactive) | 41.1 µM (inactive) | > 100 µM (inactive) | > 100 µM (inactive) | – | > 100 µM (inactive) | > 100 µM (inactive) |
| Oc1cccc(-c2cc(O)c3cc4c(cc3n2)OCO4)c1 | 4.98 µM (inactive) | 0.302 µM (active) | 4.3 µM (inactive) | – | 1.7 µM (inactive) | 3.21 µM (inactive) | > 26.1 µM (inactive) | 4.03 µM (inactive) | 0.277 µM (active) | 3.84 µM (inactive) | 1.26 µM (inactive) | 23.7 µM (inactive) | 1.92 µM (inactive) | 3.1 µM (inactive) | 0.379 µM (active) | 0.231 µM (active) | 4.28 µM (inactive) | 3.58 µM (inactive) | 0.851 µM (active) | 4.98 µM (inactive) |
